Results reported in ChEMBL document CHEMBL4028843, “Synthesis of both enantiomers of 1,2,3,4-tetrahydroisoquinoline derivative IPPAM-1 and enantio-dependency of its positive allosteric modulation of prostacyclin receptor” (Bioorg Med Chem Lett, 2017).

Target: Prostacyclin receptor (Homo sapiens) (UniProt P43119)
Assay: Positive allosteric modulation of human prostacyclin receptor expressed in CHOK1 cells assessed as increase in PGI2-induced cAMP production by measuring 2 fold leftward shift in PGI2 concentration response curve measured after 1 hr
Format: functional, cell-based

Sequence of Prostacyclin receptor (Homo sapiens) (P43119 whole entry): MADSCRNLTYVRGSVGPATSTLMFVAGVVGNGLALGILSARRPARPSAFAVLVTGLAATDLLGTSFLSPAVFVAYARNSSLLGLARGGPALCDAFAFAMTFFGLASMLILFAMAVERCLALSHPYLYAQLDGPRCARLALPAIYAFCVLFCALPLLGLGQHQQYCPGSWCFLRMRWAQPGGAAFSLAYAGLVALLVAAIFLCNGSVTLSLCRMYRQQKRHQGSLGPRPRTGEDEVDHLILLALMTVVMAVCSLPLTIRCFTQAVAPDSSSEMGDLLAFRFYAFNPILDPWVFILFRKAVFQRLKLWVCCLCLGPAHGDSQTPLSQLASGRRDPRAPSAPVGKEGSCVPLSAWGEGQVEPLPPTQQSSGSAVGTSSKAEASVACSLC

- Activity: 3.1 µM
Compound: CC(C)(C)n1nnnc1[C@@H](c1ccccc1)N1CCc2ccccc2C1
